From patent US20250035641A1, “COMPOSITIONS AND METHODS RELATED TO PROTEIN LABELING” (The Chinese University of Hong Kong, priority 2023, published 2025)

How the values were obtained:
HTN-BRD4 = target: T1, HTN-BRD4 (Homo sapiens, UniProt O60885); assay: Pulse-chase assay (HTN-BRD4 engagement in cells); assay type: cell-based; details: 5 μM, within 15 mins treatment, HEK293T HTN-BRD4:fOGT 20:1
T1 construct: HaloTag fragment; expressed in transfected cells; host or cells: HEK293T
Protocol: For HTN-BRD4, as the OGTAC-1 to 3 were designed to be irreversibly linked to it, we developed a pulse-chase assay. […] All of three OGTACs efficiently reached HTN-BRD4, fully occupied the protein within 4 h. OGTAC 1 ranked first among three OGTACs, achieving […] 90% engagement within 15 mins treatment.
1×10^5 HEK293T cells were seeded in each well of 12 well plate. After cells attached, transfection reagents and plasmids were prepared and added in DMEM. After 24 h transfection, media were replaced by fresh warm complete media with DMSO or compounds. After certain time of OGTACs treatment, media in wells were replaced by fresh warm media with 5 μM rhodamine ligand. The cells were incubated in 37° C.′ for 15 mins. Then, media were aspirated and 100 μL IP lysis buffer (Thermo Scientific 87788) supplemented with 20 μM OGA inhibitor (Thiamet G, Bidepharm BD571819) and 100X protease inhibitor (MedChemExpress. HY-K0010) (referred as complete IP lysis buffer in the later paragraph) was added to each well. The lysate was incubated on ice for 20 min, spun down at 14,000 RPM at 4° C. for 15 mins, and the supernatant were collected for bicinchoninic acid (BCA) assay and normalized to a final 2 mg/mL. […] After running, in gel fluorescence at rhodamine channel (545/575 nm) was analysed by Bio-Rad ChemiDoc MP Imaging System. […]

HTN-BRD4 and 0tfOGT = target: T2, HTN-BRD4 and 0tfOGT (Homo sapiens, UniProt O60885+P62942, F37V); assay: Washout / reversibility study, HTN-BRD4:0tfOGT; assay type: cell-based; details: 500 nM 4 h pretreatment, then fresh media
T2 construct: HaloTag fragment; 0TPR(463-1046)-; expressed in transfected cells; host or cells: HEK293T
T2 sequence (P62942 whole entry F37V, stated change not applied, other chains not shown, the tested form may be a part): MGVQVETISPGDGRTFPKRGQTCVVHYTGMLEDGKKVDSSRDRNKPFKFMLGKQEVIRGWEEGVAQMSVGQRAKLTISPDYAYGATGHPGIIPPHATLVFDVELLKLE
Protocol: FIGS. 7A-7E: Specificity and reversibility of OGTAC strategy. […] (B), Constructs of fOGT with 13.5 (rounded to 13) TPR and 0TPR-fOGT (0tfOGT). (C). […] (D), Dose-dependent O-GlcNAcylation profile of HTN-BRD4 by OGTAC-4 treatment. HEK293T cells expressing HTN-BRD4:0tfOGT=1:0.05 were treated with an increasing concentration of OGTAC-4 for 4 h. Then, the O-GlcNAcylation level of HTN-BRD4 was assessed by immunoblot after IP using BRD4 antibody. All quantifications are shown as mean±s.e.m. of n=3 biologically independent experiments. (E), Reversible effect of OGTAC-4 on HTN-BRD4 can be achieved by addition of AP1867. HEK293T cells expressing HTN-BRD4:0tfOGT=1:0.05 were pretreated with OGTAC-4 (500 nM) or DMSO for 4 h, and culturing media were replaced by fresh media with DMSO or AP1867 (50 μM) for the indicated time. The quantifications in right panel were conducted by the normalizing the fold-change (OGTAC-4/DMSO) for each post-washout time point to the value of 4 h pre-treatment. All quantifications are shown as mean±s.e.m. of 3 independent biological repeats. Statistical significance was calculated with ordinary one-way ANOVA comparing samples with different transfection conditions or OGTAC-treatment. ns, p≥0.05; *p<0.05; **p<0.01; ***p<0.001; ****p<0.0001.
To assess the potential application of our OGTAC strategy in downstream biological studies, we investigated the reversibility of OGTACs. […] Additionally. the O-GlcNAc level of BRD4 returned to baseline after 6 hours of AP1867 treatment, confirming the reversibility of the induction effect (FIG. 7E).
For each IP reaction, 2.2×10^6 HEK293T cells were seed in 10 cm dish. After cells attached, transfection reagents and plasmids were prepared and added in DMEM. After 24 h transfection, media were replaced by fresh warm complete media with DMSO or probes. For washout study, after 4 h treatment, media with DMSO or OGTAC-4 (500 nM) were replaced by fresh media with DMSO or AP1867 (50 μM) for further incubation. After certain time of OGTACs treatment, cells were collected by cold PBS and lysed by 200 μL complete IP lysis buffer. […]

engagement of HTN-BRD4 (HTN-BRD4) [%] | O-GlcNAc induction and ternary complex formation after washout (HTN-BRD4 and 0tfOGT) | SMILES
90 | – | CC[C@H](C(=O)N1CCCC[C@H]1C(=O)O[C@H](CCc1ccc(OC)c(OC)c1)c1cccc(OCC(=O)NCCOCCOCCCCCCCl)c1)c1cc(OC)c(OC)c(OC)c1 [OGTAC-1, (R)-1-(3-(2-((2-(2-((6-chlorohexyl)oxy)ethoxy)ethyl)amino)-2-oxoethoxy)phenyl)-3-(3,4-dimethoxyphenyl)propyl (S)-1-((S)-2-(3,4,5-trimethoxyphenyl)butanoyl) piperidine-2-carboxylate]
– | persisted post-washout | CC[C@H](C(=O)N1CCCC[C@H]1C(=O)O[C@H](CCc1ccc(OC)c(OC)c1)c1cccc(OCC(=O)NCCCCCCNC(=O)C[C@@H]2N=C(c3ccc(Cl)cc3)c3c(sc(C)c3C)-n3c(C)nnc32)c1)c1cc(OC)c(OC)c(OC)c1 [OGTAC-4, (R)-1-(3-(2-((6-(2-((S)-4-(4-chlorophenyl)-2,3,9-trimethyl-6H-thieno[3,2-f[]8 1,2,4]triazolo[4,3-a][1,4]diazepin-6-yl)acetamido)hexyl)amino)-2-oxoethoxy)phenyl)-3-(3,4-dimethoxyphenyl)propyl (S)-1-((S)-2-(3,4,5-trimethoxyphenyl)butanoyl)piperidine-2-carboxylate]
